In US20140039056A1, “BROMFENAC ORGANIC SALTS AND PREPARATION METHOD, COMPOSITION AND USE THEREOF” (SHENYANG XINGQI PHARMACEUTICAL CO., LTD., priority 2010, published 2014):
Counter-ions that a name gives are not always drawn.

What was measured:
[1] = In vitro transdermal absorption test (diffusion cell, ex vivo rat skin); conditions: for Accumulative osmolality: ex vivo rat skin, 32° C., n = 3; for Total osmolality of 24 h: 24 h accumulative osmolality x effective area 1.23 cm^2; for transdermal absorption amount relative to bromfenac sodium: in vitro; for Osmotic rate: slope of accumulative osmolality Q against time; for Osmotic percentage: total osmolality of 24 h / mass added to supplying chamber
Protocol: Preparation of solutions of bromfenac salts: bromfenac sodium, bromfenac diethylamine salt of Example 1, and bromfenac trometamol salt of Example 2 were precisely weighed separately to obtain 0.25 g samples, which were separately placed in 25 ml volumetric flasks, and phosphate buffered solution (pH value was 7.0) was used to reach the metered volume to obtain stock solutions for standby use.
Chromatography conditions: detector: ultraviolet absorption detector (wavelength: 266 nm). Chromatography column: octadecyl silica column (4.0 mm×150 mm, 5 μm). Mobile phase: precisely weighed ammonium acetate 3.85 g, added with water to the metered volume of 1000 mL. 600 mL of this solution was taken, and added with 250 mL of methanol and 150 mL of tetrahydrofuran. Flow rate: 1.5 mL/min.
Plotting standard curves: bromfenac sodium, bromfenac diethylamine salt and bromfenac trometamol salt in suitable amounts were precisely weighed separately, dissolved in mobile phase, diluted separately to form test solutions with concentrations of 10, 30, 60, 120, 300, 700 μg/ml, which were separately weighed precisely to take 20 μl and injected into chromatography and separately assayed.
Transdermal absorption test: ex vivo skins of back and abdomen of 200-260 g rats were taken and used as osmotic membranes, which were fixed with suture on diffusion cells (diffusion cells having a diameter of 1.25 cm, and an effective area of 1.23 cm^2). Stock solutions of bromfenac sodium, bromfenac diethylamine salt and bromfenac trometamol salt in an amount of 2 ml were separately added to supplying chamber, 100 ml of physiological saline was used as receiving solution in receiving cells, kept at a constant temperature of 32° C., stirred (250 r/min). 5 ml samples of receiving solutions were taken precisely with time intervals of 0, 2, 4, 6, 8, 10, 12, 24 hours, filtered, measured according to the above method to determine first-order light spectrum derivative absorption values and calculate contents, and accumulative osmolality Q was calculated according to the following formula;
In the above formula, c is concentration of receiving solution sample; v1 is volume of sample as taken at every turn; v2 is volume of diffusion cell; A is diffusion area. Diagrams were plotted by using t as abscissa, Q as ordinate to obtain osmosis curves of bromfenac sodium, bromfenac diethylamine salt and bromfenac trometamol salt; linear regression was performed using accumulative osmolality Q against time, the obtained slope K was transdermal osmotic rate; the accumulative osmolality of 24 hours was multiplied by the effective osmotic area (1.23 cm^2) to obtain total osmolality of 24 hours; and the total osmolality of 24 hours was divided by the mass of the added product in the supplying chamber to obtain osmotic percentage.

[2] = Chemical stability in solid state (accelerated stability test at 60° C.); format: physicochemical; conditions: for change of content in accelerated test at 60° C.: solid state, in words
Protocol: HPLC Analysis Conditions:
Detector: ultraviolet absorption detector (wavelength: 266 nm).
Chromatography column: octadecyl silica gel column (4.0 mm×150 mm, 5 um).
Mobile phase: 3.85 g of ammonium acetate was precisely weighed, added with water to reach the metered volume of 1000 mL.

[3] = Tissue distribution test (muscle tissue under skin after application to the back); conditions: rats; for Concentration in muscle tissue / concentration at 0 h / concentration at 2 h / concentration at 4 h / concentration at 6 h / concentration at 8 h / concentration at 10 h: n = 3; for time at which distribution in tissue reaches maximum values (peak concentrations): muscle tissue under skin; for concentration distributed in tissue compared with bromfenac sodium: muscle tissue; for concentration at 0 h / concentration at 2 h / concentration at 4 h / concentration at 6 h / concentration at 8 h / concentration at 10 h: rat, 1 g preparation, Concentration in muscle tissue
Protocol: Preparation of bromfenac salt solutions: 0.25 g samples of bromfenac sodium, bromfenac diethylamine salt as prepared in Example 1 and bromfenac trometamol salt as prepared in Example 2 were precisely weighed separately, placed in 25 ml volumetric flasks respectively, metered volume to obtain stock solutions for standby use.
Chromatography conditions: detector: ultraviolet absorption detector (wavelength: 266 nm). Chromatography column: octadecyl silica gel column (4.6 mm×150 mm, 5 μm). Mobile phase: precisely weighed ammonium acetate 3.85 g, added with water to the metered volume of 1000 mL. 700 mL of this solution was taken and added with 300 mL acetonitrile. Flow rate: 1.0 mL/min.
Plotting standard curves: 200 μl samples of blank tissue were taken, separately added with 50 μl of series standard solutions of bromfenac sodium, bromfenac diethylamine salt and bromfenac trometamol salt separately, added with 50 μl of internal standard respectively, to form sample solutions with equivalent tissue concentrations of bromfenac sodium, bromfenac diethylamine salt and bromfenac trometamol salt as 50, 100, 250, 500, 1000, 5000, 10000 ng/ml, which were separately weighed precisely to take 20 μl and injected into chromatography and separately assayed.
1) On the test day, removed short hair on the back of rats were with a electric hair clipper to expose surface layer of skin, while trying to avoid breaking skin during hair cutting, and then washed unhairing region with a large quantity of water;
2) anesthetized rats using 10% chloral hydrate in anesthetic agent dose of 3.5 ml/kg;
3) randomly divided the rats into 3 groups, 15 rats per group. On the unhairing region of back, the rats of 3 groups were separately administered with 1 g of bromfenac sodium, bromfenac diethylamine and Bromfenac trometamol preparations, and the administration regions were covered with freshness-keeping plastic film;
4) executed rats before administration (0 hours) and at 2 hours, 4 hours, 6 hours, 8 hours, 10 hours after administration, took muscle tissues under skin of administration sites;
5) simply washed muscle tissues with physiological saline, then absorbed excessive water with filter paper;
6) precisely weighed 1 g of muscle tissue, cut into pieces, homogenizing with 3 ml of physiological saline in electric grinding mill. A homogeneous muscle tissue homogenate was obtained after muscle tissue was ground completely;
7) took […] of tissue sample, added with 50 μL of an internal standard solution, mixed homogeneously, added with 1 mL of methanol, mixed by vortex for 1 min, centrifuged for 5 min (3500 rpm), separated and placed upper layer organic phase into another tube, blow-dried with 37° C. air, dissolved the residue by adding 100 μL of mobile phase, mixed by vortex, and took 20 μL to perform HPLC analysis.

[4] = tested on: swelling of auricle caused by xylene in mice; test: Test of effects on swelling of auricle caused by xylene in mice; format: in vivo; conditions: for effect on swelling of auricle caused by xylene in mice: in words; for Swelling degree: weight difference between two ears, lavage 50 mL/Kg of 1 g/100 ml solution twice per day for 7 days, mice
Protocol: Test grouping: 40 mice, bodyweight 20±2 g, randomly divided into 4 groups, 10 mice per group, i.e., physiological control group, bromfenac sodium group, bromfenac diethylamine salt group, and bromfenac trometamol salt group.
Test method: the mice of each test group were administered with physiological saline, solution of bromfenac sodium, solution of bromfenac diethylamine salt and solution of bromfenac trometamol salt, twice per day via lavage in lavage dose of 50 mL/Kg, for consecutive 7 days, 1 h after the last administration, xylene in dose of 0.05 mL/mouse was coated on right ears of mice of each test group, while their left ears were used as control, the mice were executed after 30 min, ear parts that were at the same place and had the same area were cut from both ears by a puncher with a diameter of 6 mm, and weighed with ten thousandth electronic analytical balance, and the weight difference between two ears was used as index of swelling.

SMILES	Accumulative osmolality ([1]; 2 hours)	Accumulative osmolality ([1]; 4 hours)	Accumulative osmolality ([1]; 6 hours)	Accumulative osmolality ([1]; 8 hours)	Accumulative osmolality ([1]; 10 hours)	Accumulative osmolality ([1]; 12 hours)	Total osmolality of 24 h [1]	Accumulative osmolality ([1]; 24 hours)	transdermal absorption amount relative to bromfenac sodium ([1]; 24 hours)	Osmotic rate [1]	Osmotic percentage [1]	content (HPLC), solid state ([2]; 60° C., 1 week)	content (HPLC), solid state ([2]; 60° C., 2 weeks)	content (HPLC), solid state ([2]; 60° C., 3 weeks)	content (HPLC), solid state ([2]; Initial)	change of content in accelerated test at 60° C. [2]	time at which distribution in tissue reaches maximum values (peak concentrations) [3]	concentration distributed in tissue compared with bromfenac sodium [3]	effect on swelling of auricle caused by xylene in mice [4]	Swelling degree [4]	further results
Nc1c(CC(=O)O)cccc1C(=O)c1ccc(Br)cc1 [Bromfenac diethylamine salt, bromfenac diethylamine salt]	322.8 μg/cm^2	964.1 μg/cm^2	1898.6 μg/cm^2	2721.8 μg/cm^2	3303.0 μg/cm^2	4123.6 μg/cm^2	10360.0 µg	8426.7 μg/cm^2	1.85 times	369.04 μg/cm^2 · h^−1	51.80%	99.5%	99.3%	99.2%	99.5%	no significant substantial change	2 h	significantly greater	significant inhibition effects	5.37 ± 0.50 mg	Concentration in muscle tissue ([3]; 0 hours (before administration)): 0 ng/mL; Concentration in muscle tissue ([3]; 2 hours after administration of 1 g preparation on back skin): 1092.1 ng/mL; Concentration in muscle tissue ([3]; 4 hours after administration of 1 g preparation on back skin): 2657.6 ng/mL; Concentration in muscle tissue ([3]; 6 hours after administration of 1 g preparation on back skin): 1803.7 ng/mL; Concentration in muscle tissue ([3]; 8 hours after administration of 1 g preparation on back skin): 1108.3 ng/mL; Concentration in muscle tissue ([3]; 10 hours after administration of 1 g preparation on back skin): 262.4 ng/mL
Nc1c(CC(=O)[O-])cccc1C(=O)c1ccc(Br)cc1.[Na+] [Bromfenac sodium, 2-amino-3-(4-bromobenzoyl)phenylacetic acid sodium salt sesquialter hydrate, reference compound]	45.5 μg/cm^2	118.5 μg/cm^2	340.8 μg/cm^2	708.6 μg/cm^2	1231.3 μg/cm^2	2214.5 μg/cm^2	5600.0 µg	4554.1 μg/cm^2	–	219.05 μg/cm^2 · h^−1	28.0%	99.5%	99.3%	99.1%	99.6%	no significant substantial change	2 h	–	significant inhibition effects	5.45 ± 0.36 mg	concentration at 0 h ([3]; in vivo, 0 hours (before administration)): 0 ng/mL; concentration at 2 h ([3]; in vivo, 2 hours after administration of 1 g preparation on back skin): 238 ng/mL; concentration at 4 h ([3]; in vivo, 4 hours after administration of 1 g preparation on back skin): 693 ng/mL; concentration at 6 h ([3]; in vivo, 6 hours after administration of 1 g preparation on back skin): 509 ng/mL; concentration at 8 h ([3]; in vivo, 8 hours after administration of 1 g preparation on back skin): 313 ng/mL; concentration at 10 h ([3]; in vivo, 10 hours after administration of 1 g preparation on back skin): 130 ng/mL
Nc1c(CC(=O)O)cccc1C(=O)c1ccc(Br)cc1 [Bromfenac trometamol salt, bromfenac trometamol salt]	277.2 μg/cm^2	632.5 μg/cm^2	1268.3 μg/cm^2	2089.6 μg/cm^2	2736.1 μg/cm^2	3085.7 μg/cm^2	9010.0 µg	7326.9 μg/cm^2	1.61 times	320.61 μg/cm^2 · h^−1	45.05%	–	99.4%	99.2%	–	no significant substantial change	2 h	significantly greater	significant inhibition effects	5.41 ± 0.47 mg	concentration at 0 h ([3]; muscle tissue under skin of administration site, topical, 0 hours (before administration)): 0 ng/mL; concentration at 2 h ([3]; muscle tissue under skin of administration site, topical, 2 hours after administration of 1 g preparation on back skin): 852 ng/mL; concentration at 4 h ([3]; muscle tissue under skin of administration site, topical, 4 hours after administration of 1 g preparation on back skin): 1490 ng/mL; concentration at 6 h ([3]; muscle tissue under skin of administration site, topical, 6 hours after administration of 1 g preparation on back skin): 1100 ng/mL; concentration at 8 h ([3]; muscle tissue under skin of administration site, topical, 8 hours after administration of 1 g preparation on back skin): 790 ng/mL; concentration at 10 h ([3]; muscle tissue under skin of administration site, topical, 10 hours after administration of 1 g preparation on back skin): 201 ng/mL
